Data taken from patent US20100029689A1, “PHOSPHODIESTERASE 4 INHIBITORS” (MEMORY PHARMACEUTICALS CORPORATION, priority 2008, published 2010).

Assays:
[1] = molecular target: T1, hPDE-4D6 (Homo sapiens, UniProt Q08499); experiment: In vitro measurement of type 4 phosphodiesterase inhibition activity (hPDE-4D6, [3H]cAMP/alumina column assay); type: biochemical; conditions: recombinant hPDE-4D6 from Sf9 cell lysate, 3 uM cAMP, 12 min, room temperature; read-out: PDE4D6 IC50
T1 construct: made in house; host or cells: Sf9 insect cells (baculovirus)
T1 sequence (Q08499 1-518 isoform Q08499-8): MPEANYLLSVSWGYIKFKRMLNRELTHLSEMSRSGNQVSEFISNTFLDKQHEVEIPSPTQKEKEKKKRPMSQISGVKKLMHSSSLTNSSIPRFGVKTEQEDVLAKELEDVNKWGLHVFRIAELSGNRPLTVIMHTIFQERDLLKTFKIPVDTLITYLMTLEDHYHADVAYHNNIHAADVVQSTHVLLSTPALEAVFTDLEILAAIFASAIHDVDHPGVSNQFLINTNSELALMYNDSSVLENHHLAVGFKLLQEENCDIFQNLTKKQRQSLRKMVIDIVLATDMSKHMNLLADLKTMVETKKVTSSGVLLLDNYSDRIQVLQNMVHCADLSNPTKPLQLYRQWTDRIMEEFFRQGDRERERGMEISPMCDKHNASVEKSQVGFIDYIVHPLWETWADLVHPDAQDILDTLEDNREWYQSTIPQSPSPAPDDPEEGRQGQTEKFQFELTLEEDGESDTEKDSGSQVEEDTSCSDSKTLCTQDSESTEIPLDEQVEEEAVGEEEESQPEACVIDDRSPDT
Experimental: Human PDE4 was obtained from baculovirus-infected Sf9 cells that expressed the recombinant enzyme. The cDNA encoding hPDE-4D6 was subcloned into a baculovirus vector.
Insect cells (Sf9) were infected with the baculovirus and cells were cultured until protein was expressed. The baculovirus-infected cells were lysed and the lysate was used as source of hPDE-4D6 enzyme. The enzyme was partially purified using a DEAE ion exchange chromatography. This procedure can be repeated using cDNA encoding other PDE-4 enzymes.
Type 4 phosphodiesterases convert cyclic adenosine monophosphate (cAMP) to 5′-adenosine monophosphate (5′-AMP). Nucleotidase converts 5′-AMP to adenosine. Therefore the combined activity of PDE4 and nucleotidase converts cAMP to adenosine. Adenosine is readily separated from cAMP by neutral alumina columns. Phosphodiesterase inhibitors block the conversion of cAMP to adenosine in this assay; consequently, PDE4 inhibitors cause a decrease in adenosine.
Cell lysates (40 ul) expressing hPDE-4D6 were combined with 50 ul of assay mix and 10 μl of inhibitors and incubated for 12 min at room temperature. Final concentrations of assay components were: 0.4 ug enzyme, 10 mM Tris-HCl (pH 7.5), 1 mM MgCl2, 3 uM cAMP, 0.002 U 5′-nucleotidase, and 3×10^4 cpm of [3H]cAMP. The reaction was stopped by adding 100 μl of boiling 5mN HCl. An aliquot of 75 μl of reaction mixture was transferred from each well to alumina columns (Multiplate; Millipore). Labeled adenosine was eluted into an OptiPlate by spinning at 2000 rpm for 2 min; 150 μl per well of scintillation fluid was added to the OptiPlate. The plate was sealed, shaken for about 30 min, and cpm of [^3H]adenosine was determined using a Wallac Triflux®.
All test compounds are dissolved in 100% DMSO and diluted into the assay such that the final concentration of DMSO is 0.1%.
A decrease in adenosine concentration is indicative of inhibition of PDE activity. […] Nonlinear regression software (Assay Explorer@) was used to estimate pIC50 values.

[2] = tested on: rats; experiment: Passive avoidance in rats, in vivo test for learning and memory; design: species or system rat; conditions: male Sprague-Dawley rats, 0.1 mg/kg, 24 hours after electric shock, compared to vehicle (p<0.001)
Experimental: The test was performed as previously described (Zhang, H.-T., Crissman, A. M., Dorairaj, N. R., Chandler, L. J., and O'Donnell, J. M., Neuropsychopharmacology, 2000, 23, 198-204.). The apparatus (Model E10-16SC, Coulboum Instruments, Allentown, Pa.) consisted of a two-compartment chamber with an illuminated compartment connected to a darkened compartment by a guillotine door. The floor of the darkened compartment consisted of stainless steel rods through which an electric foot-shock could be delivered from a constant current source. All experimental groups were first habituated to the apparatus the day before the start of the experiment. During the training, the rat (Male Sprague-Dawley (Harlan) weighing 250 to 350 g) was placed in the illuminated compartment facing away from the closed guillotine door for 1 minute before the door was raised. The latency for entering the darkened compartment was recorded. After the rat entered the darkened compartment, the door was closed and a 0.5 mA electric shock was administered for 3 seconds. […] The latency for entering the darkened compartment was recorded for up to 180 seconds, at which time the trial was terminated.
(§1) All data were analyzed by analyses of variance (ANOVA); individual comparisons were made using Kewman-Keuls tests. […]

[3] = tested on: rats; experiment: Radial arm maze task in rats, in vivo test for learning and memory; design: species or system rat; conditions: male Sprague-Dawley rats, 0.1 mg/kg, i.p., compared to control (p<0.01)
Experimental: The test was performed as previously described (Zhang, H.-T., Crissman, A. M., Dorairaj, N. R., Chandler, L. J., and O'Donnell, J. M., Neuropsychopharmacology, 2000, 23, 198-204.). Five days after initial housing, rats (male Sprague-Dawley (Harlan) weighing 250 to 350 g) were placed in the eight-arm radial maze (each arm was 60×10×12 cm high; the maze was elevated 70 cm above the floor) for acclimation for two days. Rats were then placed individually in the center of the maze for 5 minutes with food pellets placed close to the food wells, and then, the next day, in the wells at the end of the arms; 2 sessions a day were conducted. Next, four randomly selected arms were then baited with one pellet of food each. The rat was restricted to the center platform (26 cm in diameter) for 15 seconds and then allowed to move freely throughout the maze until it collected all pellets of food or 10 minutes passed, whichever came first. Four parameters were recorded: 1) working memory errors, i.e., entries into baited arms that had already been visited during the same trial; 2) reference memory errors, i.e., entries into unbaited arms; 3) total arm entries; and 4) the test duration (seconds), i.e., the time spent in the collection of all the pellets in the maze. […]
as §1

Row | Structure (SMILES) | IC50 [1] [nM] | melting point [°C] | also measured
1 | CCOc1cc(N(Cc2cnco2)c2ccc(C(=O)O)cc2)ccc1OC(F)(F)F [Example 217] | 12 | – | –
2 | CCOc1cc(Nc2ccc(C(=O)O)cc2)ccc1OC(F)F [Example 294] | 34.9 | – | –
3 | COc1ccc(N(Cc2cncs2)c2ccc(C(=O)O)cc2)cc1OCC1CC1 [Example 72] | 25.1 | – | –
4 | COc1ccc(N(Cc2cncs2)c2ccc(C(=O)O)cc2)cc1OC [Example 138] | 61 | – | –
5 | CCOc1cc(N(Cc2cocn2)c2ccc(C(=O)O)cc2)ccc1OC(F)F [Example 190] | 20 | – | –
6 | O=C(O)Cc1ccc(N(Cc2cncnc2)c2ccc(OC(F)F)c(OC(F)F)c2)cc1 [Example 137] | 139 | – | –
7 | CCOc1cc(N(Cc2cncs2)c2ccc(C(=O)O)cc2)ccc1OC [Example 130] | 8.6 | – | –
8 | COc1cc(N(Cc2cccnc2)c2ccc(C(=O)O)cc2)ccc1OC(F)F [Example 124] | 11.2 | – | –
9 | O=C(O)c1ccc(N(Cc2cnccn2)c2ccc(OC(F)F)c(OC(F)F)c2)cc1 [Example 142] | 289 | – | –
10 | O=C(O)c1ccc(N(Cc2cnco2)c2ccc(OC(F)F)c(OC3CCC3)c2)cc1 [Example 182] | 3.8 | – | –
11 | CCOc1cc(N(Cc2cccnc2)c2ccc(C(=O)O)cc2)ccc1OC(F)F [Example 14] | 2.54 | – | –
12 | COc1ccc(N(Cc2cnco2)c2ccc(C(=O)O)cc2)cc1OC1CC1 [Example 189] | 2.3 | – | –
13 | O=C(O)Cc1cccc(N(Cc2cncnc2)c2ccc(OC(F)F)c(OC(F)F)c2)c1 [Example 139] | 53 | – | –
14 | O=C(O)c1ccc(N(Cc2cncnc2)c2ccc(OC(F)F)c(OC(F)F)c2)cc1 [Example 80] | 6.17 | – | –
15 | COc1ccc(N(Cc2cccnn2)c2ccc(C(=O)O)cc2)cc1OC1CCCC1 [Example 47] | 128 | – | –
16 | COc1cc(N(Cc2cncs2)c2cccc(C(=O)O)c2)ccc1OC(F)F [Example 116] | 7 | – | –
17 | CCOc1cc(N(Cc2cnc(C)s2)c2ccc(C(=O)O)cc2)ccc1OC(F)F [Example 225] | 4.38 | – | –
18 | O=C(O)c1ccc(Nc2ccc(OC(F)F)c(OC(F)F)c2)cc1 [Example 295] | 108 | – | –
19 | COc1ccc(N(Cc2cncs2)c2ccc(S(C)(=O)=O)cc2)cc1O[C@@H]1CCOC1 [Example 111] | 29 | – | –
20 | CCOc1cc(N(Cc2cncnc2)c2ccc(C(=O)O)cc2)ccc1OC(F)F [Example 143] | 7.5 | – | –
21 | C[C@]12N[C@H](Cc3ccccc31)c1ccccc12 [MK-801] | – | – | latency for entering the darkened compartment (retention test) [2]: markedly reduced this latency; frequencies of working and reference memory errors [3]: increased the frequencies of both working and reference memory errors

Row | Structure (SMILES) | IC50 [1] [nM] | melting point [°C] | also measured
22 | CCOc1cc(N(Cc2cnns2)c2ccc(C(=O)O)cc2)ccc1OC(F)F [Example 281] | 0.16 | – | –
23 | CCOc1cc(-c2ncc(CN(c3ccc(C(=O)O)cc3)c3ccc(OC(F)F)c(OCC)c3)o2)ccc1OC(F)F [Compound 273] | – | 178.4 to 178.9 | –
24 | COc1ccc(N(Cc2cncs2)c2cccc(C(=O)O)c2)cc1OCC1CC1 [Compound 73] | – | 137.4 to 139.4 | –
25 | CCOc1cc(N(Cc2cnco2)c2ccc(C(=O)O)cc2)ccc1OC(F)F [Compound 144] | – | 111.1 to 113 | –
26 | COc1ccc(N(Cc2cnco2)c2ccc(C(=O)O)cc2)cc1OC(F)(F)F [Example 232] | 6.94 | – | –
27 | O=C(O)c1ccc(N(Cc2cncs2)c2ccc(OC(F)F)c(OC(F)F)c2)cc1 [Example 59] | 5.69 | – | –
28 | O=C(O)c1ccc(N(Cc2cnco2)c2ccc(OC(F)F)c(OC(F)F)c2)cc1 [Example 141] | 27 | – | –
29 | CCOc1cc(N(Cc2cncnc2)c2ccc(C(=O)O)cc2)ccc1OC(F)F [Compound 143] | – | 165.3 to 165.9 | –
30 | COc1ccc(N(Cc2cncnc2)c2ccc(C(=O)O)cc2)cc1OC(C)C [Compound 192] | – | 181.7 to 183.6 | –
31 | COc1cc(N(Cc2cccnc2)c2ccc(C(=O)O)cc2)ccc1OC(F)F [Example 14, 4-[(4-Difluoromethoxy-3-methoxy-phenyl)-pyridin-3-ylmethyl-amino]-benzoic acid] | – | 183.7 to 184.9 | –
32 | COc1ccc(N(Cc2cncs2)c2ccc(C(=O)O)cc2)cc1OC(C)C [Example 131] | 17.3 | – | –
33 | O=C(O)c1cccc(N(Cc2cnccn2)c2ccc(OC(F)F)c(OCC3CC3)c2)c1 [Compound 159] | – | 72.7 to 73.1 | –
34 | CCCCOc1cc(N(Cc2cncs2)c2ccc(C(=O)O)cc2)ccc1OC(F)F [Compound 129] | – | 158.7 to 159.5 | –
35 | COc1ccc(N(Cc2cncnc2)c2cccc(C(=O)O)c2)cc1OC1CC1 [Example 218] | 1.08 | – | –
36 | CCOc1ccc(N(Cc2cncs2)c2ccc(C(=O)O)cc2)cc1OCC [Compound 170] | – | 77 to 79 | –
37 | COc1cc(N(Cc2cccnc2)c2ccc(C(=O)O)cc2)ccc1OC(F)F [Compound 124] | – | 182.4 to 183.4 | –
38 | O=C(O)Cc1ccc(N(Cc2cccnc2)c2ccc(OC(F)F)c(OC(F)F)c2)cc1 [Compound 69] | – | 107.4 to 108.1 | –
39 | CCOc1cc(N(Cc2cccnc2)c2ccc(C(=O)O)cc2)ccc1OC(F)F [Example 11, 4-[(4-Difluoromethoxy-3-ethoxy-phenyl)-pyridin-3-ylmethyl-amino]-benzoic acid] | – | 177.6 to 178.9 | –
40 | COc1cc(N(Cc2cncs2)c2ccc(C(=O)O)cc2)ccc1OC(F)F [Compound 120] | – | 164.9 to 165.3 | –
41 | O=C(O)c1ccc(N(Cc2cncnc2)c2ccc(OC(F)F)c(OCC3CC3)c2)cc1 [Compound 168] | – | 265.1 to 266.6 | –
42 | COc1ccc(N(Cc2cncs2)c2ccc(C(=O)O)cc2)cc1OC(F)F [Compound 150] | – | 86.4 to 88.3 | –
